Reference: US10710978B2, “STK4 inhibitors for treatment of hematologic malignancies” (Dana-Farber Cancer Institute, Inc., priority 2015, dated 2020)
Where “and” joins values, the source holds several entries; their conditions need not be identical. Equal entries are not always repeated. Where two headings read alike, the source gives them in different places.

Tests used:
[1] = molecular target: STK4 (MST1) (Homo sapiens (Human), UniProt Q13043); test: Z-lyte biochemical IC50 assay (Invitrogen); settings: ATP concentration matched the Km
Chain of STK4 (MST1) (Q13043 whole entry): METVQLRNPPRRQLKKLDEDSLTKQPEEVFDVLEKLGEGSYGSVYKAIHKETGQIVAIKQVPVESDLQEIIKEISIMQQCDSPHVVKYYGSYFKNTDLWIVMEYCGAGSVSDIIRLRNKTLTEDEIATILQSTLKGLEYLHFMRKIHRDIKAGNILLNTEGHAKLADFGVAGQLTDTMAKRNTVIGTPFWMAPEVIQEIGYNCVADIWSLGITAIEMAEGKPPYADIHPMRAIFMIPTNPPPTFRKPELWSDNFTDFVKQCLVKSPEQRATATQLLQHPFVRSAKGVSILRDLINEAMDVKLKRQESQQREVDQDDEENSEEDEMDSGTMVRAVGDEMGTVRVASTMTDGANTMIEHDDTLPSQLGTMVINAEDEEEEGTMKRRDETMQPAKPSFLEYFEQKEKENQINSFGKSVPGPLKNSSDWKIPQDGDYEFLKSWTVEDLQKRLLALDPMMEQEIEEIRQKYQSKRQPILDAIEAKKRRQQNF
Description: (§1) STK4 (MST1), STK3 (MST2); STK24 (MST3) and MST4 Assays
(§2) Biochemical IC50s were measured at Invitrogen using Z-lyte technology. Briefly, for STK4, the 2×STK4 (MST1)/Ser/Thr 07 mixture was prepared in 50 mM HEPES pH 7.5, 0.01% BRIJ35, 10 mM MgCl2, 1 mM EGTA. The final 10 μL Kinase Reaction consisted of 6.25-160 ng STK4 (MST1) and 2 μM Ser/Thr 07 in 50 mM HEPES pH 7.5, 0.01% BRIJ-35, 10 mM MgCl2, 1 mM EGTA. After the 1 hour Kinase Reaction incubation, 5 μL of a 1:100000 dilution of Development Reagent A was added. Compounds were screened in a 10 point titration with 3-fold serial dilutions starting at a concentration of 10 μM. The biochemical IC50s against other STK family members were measured similarly. The ATP concentration used matched the Km for each kinase.

[2] = molecular target: STK24 (MST3) (Homo sapiens (Human), UniProt Q9Y6E0); test: Z-lyte biochemical IC50 assay (Invitrogen); settings: ATP concentration matched the Km
Chain of STK24 (MST3) (Q9Y6E0 whole entry): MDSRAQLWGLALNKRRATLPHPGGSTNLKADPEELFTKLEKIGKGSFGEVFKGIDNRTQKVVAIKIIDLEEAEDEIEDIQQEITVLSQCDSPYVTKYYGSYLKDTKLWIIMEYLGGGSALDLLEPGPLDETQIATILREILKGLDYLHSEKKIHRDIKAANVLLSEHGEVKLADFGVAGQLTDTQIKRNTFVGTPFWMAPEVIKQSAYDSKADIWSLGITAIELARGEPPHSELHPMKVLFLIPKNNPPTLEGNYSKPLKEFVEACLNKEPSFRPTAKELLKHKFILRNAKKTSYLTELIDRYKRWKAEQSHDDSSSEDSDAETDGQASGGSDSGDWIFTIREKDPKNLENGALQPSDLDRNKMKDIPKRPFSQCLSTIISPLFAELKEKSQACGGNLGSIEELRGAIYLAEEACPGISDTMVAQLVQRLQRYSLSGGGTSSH
Description: as §1, §2

[3] = molecular target: CaMK2d (Homo sapiens (Human), UniProt Q13557); test: KiNativ assay; assay type: binding; settings: H929 live cell
Description: (§3) Biochemical IC50s of the compounds of the present disclosure against various kinases were measured in a KiNativ assay. Compounds were screened in duplicate at 10 μM in H929 live cell. IC50 was measured via Mass spectroscopy (MS).

[4] = tested on: MAP3K2, MAP3K3; test: KiNativ assay; assay type: binding; settings: H929 live cell
Description: as §3

[5] = molecular target: SNRK (Homo sapiens (Human), UniProt Q9NRH2); test: KiNativ assay; assay type: binding; settings: H929 live cell
Description: as §3

[6] = molecular target: MAP2K4 (Homo sapiens (Human), UniProt P45985); test: KiNativ assay; assay type: binding; settings: H929 live cell
Description: as §3

[7] = molecular target: GSK3A (Homo sapiens (Human), UniProt P49840); test: KiNativ assay; assay type: binding; settings: H929 live cell
Description: as §3

[8] = tested on: p38d, p38g; test: KiNativ assay; assay type: binding; settings: H929 live cell
Description: as §3

[9] = molecular target: TLK2 (Homo sapiens (Human), UniProt Q86UE8); test: KiNativ assay; assay type: binding; settings: H929 live cell
Description: as §3

[10] = molecular target: BARK1 (Homo sapiens (Human), UniProt P25098); test: KiNativ assay; assay type: binding; settings: H929 live cell
Description: as §3

[11] = molecular target: MSK1 domain1 (Homo sapiens (Human), UniProt O75582); test: KiNativ assay; assay type: binding; settings: H929 live cell
Description: as §3

[12] = molecular target: SRPK1 (Homo sapiens (Human), UniProt Q96SB4); test: KiNativ assay; assay type: binding; settings: H929 live cell
Description: as §3

[13] = molecular target: ATR (Homo sapiens (Human), UniProt Q13535); test: KiNativ assay; assay type: binding; settings: H929 live cell, read-out: inhibition (10 μM)
Description: as §3

[14] = molecular target: MARK3 (Homo sapiens (Human), UniProt P27448); test: KiNativ assay; assay type: binding; settings: H929 live cell
Description: as §3

[15] = molecular target: GCN2 domain2 (Homo sapiens (Human), UniProt Q9P2K8); test: KiNativ assay; assay type: binding; settings: H929 live cell
Description: as §3

[16] = molecular target: AurA (Homo sapiens (Human), UniProt O14965); test: KiNativ assay; assay type: binding; settings: H929 live cell
Chain of AurA (O14965 whole entry): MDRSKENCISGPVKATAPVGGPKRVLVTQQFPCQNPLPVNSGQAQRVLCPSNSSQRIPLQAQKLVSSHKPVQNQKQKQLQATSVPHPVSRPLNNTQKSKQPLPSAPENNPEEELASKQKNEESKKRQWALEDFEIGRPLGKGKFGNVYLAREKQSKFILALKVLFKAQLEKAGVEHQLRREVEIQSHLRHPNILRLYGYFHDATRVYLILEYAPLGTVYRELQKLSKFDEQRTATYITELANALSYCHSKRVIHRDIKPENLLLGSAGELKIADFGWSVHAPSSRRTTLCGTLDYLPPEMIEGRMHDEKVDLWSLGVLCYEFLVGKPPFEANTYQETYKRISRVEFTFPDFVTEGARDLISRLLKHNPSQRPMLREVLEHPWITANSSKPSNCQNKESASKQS
Description: as §3

[17] = tested on: FYN, SRC, YES; test: KiNativ assay; assay type: binding; settings: H929 live cell
Description: as §3

[18] = tested on: MARK2, MARK3; test: KiNativ assay; assay type: binding; settings: H929 live cell
Description: as §3

[19] = molecular target: PIK3CB (Homo sapiens (Human), UniProt P42338); test: KiNativ assay; assay type: binding; settings: H929 live cell
Description: as §3

[20] = molecular target: NEK7 (Homo sapiens (Human), UniProt Q8TDX7); test: KiNativ assay; assay type: binding; settings: H929 live cell
Chain of NEK7 (Q8TDX7 whole entry): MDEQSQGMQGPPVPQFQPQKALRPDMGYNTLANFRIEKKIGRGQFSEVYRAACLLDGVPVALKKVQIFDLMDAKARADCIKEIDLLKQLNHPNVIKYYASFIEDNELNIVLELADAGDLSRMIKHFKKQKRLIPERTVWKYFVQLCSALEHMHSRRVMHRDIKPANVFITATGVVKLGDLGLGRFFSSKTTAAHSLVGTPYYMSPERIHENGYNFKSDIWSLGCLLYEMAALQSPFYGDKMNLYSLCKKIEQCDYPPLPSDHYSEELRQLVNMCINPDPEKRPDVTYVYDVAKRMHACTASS
Description: as §3

[21] = molecular target: PIP4K2C (Homo sapiens (Human), UniProt Q8TBX8); test: KiNativ assay; assay type: binding; settings: H929 live cell
Description: as §3

[22] = molecular target: CDK2 (Homo sapiens (Human), UniProt P24941); test: KiNativ assay; assay type: binding; settings: H929 live cell
Description: as §3

[23] = molecular target: NEK8 (Homo sapiens (Human), UniProt Q86SG6); test: KiNativ assay; assay type: binding; settings: H929 live cell
Description: as §3

[24] = molecular target: MLK3 (Homo sapiens (Human), UniProt Q16584); test: KiNativ assay; assay type: binding; settings: H929 live cell
Description: as §3

[25] = molecular target: NEK1 (Homo sapiens (Human), UniProt Q96PY6); test: KiNativ assay; assay type: binding; settings: H929 live cell
Description: as §3

[26] = molecular target: CHK2 (Homo sapiens (Human), UniProt O96017); test: KiNativ assay; assay type: binding; settings: H929 live cell
Chain of CHK2 (O96017 whole entry): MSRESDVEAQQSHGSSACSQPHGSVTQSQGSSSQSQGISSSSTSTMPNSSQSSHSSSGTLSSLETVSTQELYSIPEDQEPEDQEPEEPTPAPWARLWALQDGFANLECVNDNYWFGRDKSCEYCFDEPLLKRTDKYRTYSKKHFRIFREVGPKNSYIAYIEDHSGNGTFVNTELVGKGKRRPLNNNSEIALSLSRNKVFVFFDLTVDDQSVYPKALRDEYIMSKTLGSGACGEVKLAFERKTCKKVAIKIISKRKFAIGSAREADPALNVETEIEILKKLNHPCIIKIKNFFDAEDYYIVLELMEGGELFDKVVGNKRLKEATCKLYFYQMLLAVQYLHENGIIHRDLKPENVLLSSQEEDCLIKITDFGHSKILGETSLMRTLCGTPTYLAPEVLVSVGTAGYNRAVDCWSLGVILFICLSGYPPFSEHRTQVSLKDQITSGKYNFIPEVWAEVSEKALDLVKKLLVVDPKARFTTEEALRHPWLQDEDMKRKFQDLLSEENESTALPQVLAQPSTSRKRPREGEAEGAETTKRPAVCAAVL
Description: as §3

[27] = molecular target: MAP3K1 (Homo sapiens (Human), UniProt Q13233); test: KiNativ assay; assay type: binding; settings: H929 live cell
Chain of MAP3K1 (Q13233 whole entry): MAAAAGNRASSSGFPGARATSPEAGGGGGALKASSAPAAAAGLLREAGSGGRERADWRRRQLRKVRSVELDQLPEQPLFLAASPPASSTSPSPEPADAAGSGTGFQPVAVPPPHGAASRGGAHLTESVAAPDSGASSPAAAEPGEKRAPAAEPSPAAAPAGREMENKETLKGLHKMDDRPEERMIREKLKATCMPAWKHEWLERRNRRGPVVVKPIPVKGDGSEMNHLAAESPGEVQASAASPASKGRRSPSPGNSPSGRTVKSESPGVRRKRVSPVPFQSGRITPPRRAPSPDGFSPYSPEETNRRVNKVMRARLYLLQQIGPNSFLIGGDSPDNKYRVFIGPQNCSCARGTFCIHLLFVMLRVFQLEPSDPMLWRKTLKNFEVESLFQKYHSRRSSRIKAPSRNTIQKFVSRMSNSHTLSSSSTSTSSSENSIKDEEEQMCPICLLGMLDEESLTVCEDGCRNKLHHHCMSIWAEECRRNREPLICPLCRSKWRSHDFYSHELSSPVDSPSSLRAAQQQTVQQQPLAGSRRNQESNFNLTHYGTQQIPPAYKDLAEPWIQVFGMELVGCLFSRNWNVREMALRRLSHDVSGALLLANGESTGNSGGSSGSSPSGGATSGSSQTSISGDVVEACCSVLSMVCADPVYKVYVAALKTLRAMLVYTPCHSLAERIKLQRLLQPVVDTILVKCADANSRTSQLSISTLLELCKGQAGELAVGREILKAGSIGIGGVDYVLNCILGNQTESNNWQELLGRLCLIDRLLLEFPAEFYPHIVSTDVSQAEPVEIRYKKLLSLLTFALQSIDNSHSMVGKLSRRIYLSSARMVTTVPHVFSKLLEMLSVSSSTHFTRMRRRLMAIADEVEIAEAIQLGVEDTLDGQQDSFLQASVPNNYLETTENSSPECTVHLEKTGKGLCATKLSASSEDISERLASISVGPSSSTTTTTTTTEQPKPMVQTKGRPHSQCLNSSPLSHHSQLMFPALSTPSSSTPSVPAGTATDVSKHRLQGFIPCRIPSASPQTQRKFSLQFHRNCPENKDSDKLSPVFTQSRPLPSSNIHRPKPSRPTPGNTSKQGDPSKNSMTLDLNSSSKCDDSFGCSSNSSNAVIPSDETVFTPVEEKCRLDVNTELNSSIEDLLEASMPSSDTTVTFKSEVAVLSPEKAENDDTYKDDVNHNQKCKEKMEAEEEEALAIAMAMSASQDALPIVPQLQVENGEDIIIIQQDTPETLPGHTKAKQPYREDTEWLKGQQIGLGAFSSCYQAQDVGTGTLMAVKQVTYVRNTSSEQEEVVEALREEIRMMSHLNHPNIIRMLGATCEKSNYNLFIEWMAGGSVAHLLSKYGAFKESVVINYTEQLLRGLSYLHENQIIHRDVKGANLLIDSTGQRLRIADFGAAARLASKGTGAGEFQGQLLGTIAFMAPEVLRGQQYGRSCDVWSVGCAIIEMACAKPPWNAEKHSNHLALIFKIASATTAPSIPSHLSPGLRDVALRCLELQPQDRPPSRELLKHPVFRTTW
Description: as §3

[28] = molecular target: NDR2 (Homo sapiens (Human), UniProt Q9Y2H1); test: KiNativ assay; assay type: binding; settings: H929 live cell
Chain of NDR2 (Q9Y2H1 whole entry): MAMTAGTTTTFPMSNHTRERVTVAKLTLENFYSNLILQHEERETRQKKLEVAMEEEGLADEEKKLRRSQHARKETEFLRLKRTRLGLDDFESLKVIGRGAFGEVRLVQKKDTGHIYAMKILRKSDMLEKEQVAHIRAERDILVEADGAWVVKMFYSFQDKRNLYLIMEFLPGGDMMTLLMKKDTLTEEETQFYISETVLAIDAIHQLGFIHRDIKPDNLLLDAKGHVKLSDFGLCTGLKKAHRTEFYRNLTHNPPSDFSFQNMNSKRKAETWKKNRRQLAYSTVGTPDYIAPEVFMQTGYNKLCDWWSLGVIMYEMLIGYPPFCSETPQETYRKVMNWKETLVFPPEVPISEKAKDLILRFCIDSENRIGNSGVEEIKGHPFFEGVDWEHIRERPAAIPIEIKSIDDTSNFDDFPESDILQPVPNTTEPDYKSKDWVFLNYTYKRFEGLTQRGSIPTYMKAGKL
Description: as §3

[29] = molecular target: CLK2 (Homo sapiens (Human), UniProt P49760); test: KiNativ assay; assay type: binding; settings: H929 live cell
Chain of CLK2 (P49760 whole entry): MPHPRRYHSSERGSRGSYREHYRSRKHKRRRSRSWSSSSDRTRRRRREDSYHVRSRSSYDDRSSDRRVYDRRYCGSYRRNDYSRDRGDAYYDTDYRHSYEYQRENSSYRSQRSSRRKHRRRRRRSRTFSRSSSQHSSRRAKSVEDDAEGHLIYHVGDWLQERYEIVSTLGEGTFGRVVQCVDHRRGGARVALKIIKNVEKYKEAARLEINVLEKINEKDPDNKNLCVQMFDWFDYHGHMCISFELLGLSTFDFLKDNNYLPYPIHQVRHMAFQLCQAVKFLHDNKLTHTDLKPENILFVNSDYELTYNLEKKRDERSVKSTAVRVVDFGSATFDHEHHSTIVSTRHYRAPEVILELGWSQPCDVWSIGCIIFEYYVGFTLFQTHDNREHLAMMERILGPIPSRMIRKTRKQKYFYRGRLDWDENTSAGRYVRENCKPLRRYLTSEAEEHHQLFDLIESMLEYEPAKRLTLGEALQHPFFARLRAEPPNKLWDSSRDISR
Description: as §3

Nc1ncc(-c2cc([N+](=O)[O-])ccc2F)cc1-c1ccc2c(c1)CCNC2=O [Compound I-1, 6-(2-amino-5-(2-fluoro-5-nitrophenyl)pyridin-3-yl)-3,4-dihydroisoquinolin-1(2H)-one]
IC50 [1]: < 40 nM
IC50 [2]: > 900 nM

Nc1ncc(-c2cccc([N+](=O)[O-])c2F)cc1-c1ccc2c(c1)CCNC2=O [Compound I-9, 6-(2-amino-5-(2-fluoro-3-nitrophenyl)pyridin-3-yl)-3,4-dihydroisoquinolin-1(2H)-one]
inhibition at 10 µM ([3]; read-out: % inhibition (range)): 0%
inhibition at 10 µM ([3]; read-out: inhibition (10 μM)): -5.7%
% inhibition (range) ([4]; 10 μM): 35-50%
inhibition (10 μM) [4]: 43.2%
inhibition at 10 µM ([5]; read-out: % inhibition (range)): 35 to 50%
inhibition at 10 µM ([5]; read-out: inhibition (10 μM)): 43.7%
inhibition at 10 µM ([6]; read-out: % inhibition (range)): 50 to 75%
inhibition at 10 µM ([6]; read-out: inhibition (10 μM)): 72.9%
inhibition at 10 µM ([7]; read-out: % inhibition (range)): > 90%
inhibition at 10 µM ([7]; read-out: inhibition (10 μM)): 97.2%
% inhibition (range) ([8]; 10 μM): 0.0%
inhibition (10 μM) [8]: −11.0%
inhibition at 10 µM ([9]; read-out: % inhibition (range)): 0%
inhibition at 10 µM ([9]; read-out: inhibition (10 μM)): 34%
inhibition at 10 µM ([10]; read-out: % inhibition (range)): 0%
inhibition at 10 µM ([10]; read-out: inhibition (10 μM)): 2.8%
inhibition at 10 µM ([11]; read-out: % inhibition (range)): 0%
inhibition at 10 µM ([11]; read-out: inhibition (10 μM)): 2%
inhibition at 10 µM ([12]; read-out: % inhibition (range)): 0%
inhibition at 10 µM ([12]; read-out: inhibition (10 μM)): 32.8%
inhibition at 10 µM [13]: 37.5%
inhibition at 10 µM ([14]; read-out: % inhibition (range)): 75 to 90%
inhibition at 10 µM ([14]; read-out: inhibition (10 μM)): 78.3%
inhibition at 10 µM ([15]; read-out: % inhibition (range)): 0%
inhibition at 10 µM ([15]; read-out: inhibition (10 μM)): 15.5%
% inhibition (range) ([16]; 10 μM): 50-75% and 75-90%
inhibition (10 μM) [16]: 75.7%
inhibition at 10 µM ([16]; read-out: inhibition (10 μM)): 68.5%
% inhibition (range) ([17]; 10 μM): 0.0%
inhibition (10 μM) [17]: 28.3%
% inhibition (range) ([18]; 10 μM): 50-75%
inhibition (10 μM) [18]: 70.2%
inhibition at 10 µM ([19]; read-out: % inhibition (range)): 0%
inhibition at 10 µM ([19]; read-out: inhibition (10 μM)): 14.6%
inhibition at 10 µM ([20]; read-out: % inhibition (range)): 0%
inhibition at 10 µM ([20]; read-out: inhibition (10 μM)): -39.5%
inhibition at 10 µM ([21]; read-out: % inhibition (range)): 50 to 75%
inhibition at 10 µM ([21]; read-out: inhibition (10 μM)): 65.7%
inhibition at 10 µM ([22]; read-out: % inhibition (range)): 50 to 75%
inhibition at 10 µM ([22]; read-out: inhibition (10 μM)): 68.5%
inhibition at 10 µM ([23]; read-out: % inhibition (range)): 0%
inhibition at 10 µM ([23]; read-out: inhibition (10 μM)): 11.6%
inhibition at 10 µM ([24]; read-out: % inhibition (range)): 50 to 75%
inhibition at 10 µM ([24]; read-out: inhibition (10 μM)): 62.9%
inhibition at 10 µM ([25]; read-out: % inhibition (range)): 0%
inhibition at 10 µM ([25]; read-out: inhibition (10 μM)): -34%
inhibition at 10 µM ([26]; read-out: % inhibition (range)): 75 to 90%
inhibition at 10 µM ([26]; read-out: inhibition (10 μM)): 80.9%
inhibition at 10 µM ([27]; read-out: % inhibition (range)): > 90%
inhibition at 10 µM ([27]; read-out: inhibition (10 μM)): 95.6%
inhibition at 10 µM ([28]; read-out: % inhibition (range)): 0%
inhibition at 10 µM ([28]; read-out: inhibition (10 μM)): -9.5%
inhibition at 10 µM ([29]; read-out: % inhibition (range)): > 90%
inhibition at 10 µM ([29]; read-out:): > 95%
IC50 [1]: < 40 nM
IC50 [2]: > 900 nM
